Assay [1] relates to soybean. As to the kind of experiment: Greenhouse experiment: methanol sprayed on soybean plants from cured (PPFMs absent) or untreated (PPFMs present) seeds, plant dry weight. The following applies: for Mean dry weight +/− SD: methanol 0.5 ml per plant, harvested 2 weeks after spraying; for % gain over controls (dry weight): vs zero-time control. The assay is classed as in vivo. Here is the method:
Application of PPFMs to plants was performed in accordance with the methods detailed in U.S. Pat. No. 5,512,069. Application of methanol to plants was performed in accordance with U.S. Patent No. 5,532,204.
Soybeans were treated with dry heat before planting to lower the population of PPFMs on them (see U.S. Pat. No. 5,512,069). Untreated seeds served as controls.
To test whether the presence of PPFM bacteria is required for foliar applications of methanol to be effective, greenhouse experiments were conducted. Seeds of soybean were cured of their PPFM bacteria with dry heat as previously described (Holland et al, 1992, Plant Physiol 98:942-948)). Cured and untreated seeds wee then plated in the greenhouse in a soil-less potting medium (Pro-Mix BX), Premier Horticulture Inc.). During germination, and while the seedlings established themselves, all plants were watered freely. After 4 weeks, both cured and untreated plants were divided into two groups (each group consisting of approximately 10 pots of 5 plants). One group of cured seedlings and one group of untreated seedlings were maintained as before under freely-watered conditions. […] After 2 weeks, half of the plants in each test group were harvested and dried to constant weight (a zero-time control). The remaining plants were sprayed with methanol (0.5 ml per plant) from an atomizer and were allowed to continue growing under their respective watering regimes for an additional 2 weeks. At the end of this period, all remaining plants were harvested and dried to constant weight.

Assay [2] relates to soybean (Glycine max (L.) Merr. cv. 'Corsica'). As to the kind of experiment: Field experiments: foliar applications on soybean, seed yield by weight. It counts as in vivo. Here is the method:
To test the effects of foliar applications of methanol on soybean (Glycine max (L.) Merr. cv. ‘Corsica’ (maturity group IV)), field experiments were conducted over three years. In the first year, methanol at 0, 62.5 and 125 liters×ha^−1 was combined with urea nitrogen at 0, 12.5 and 25 kg×ha^−1 and sprayed with distilled water in a total volume of 500 liters×ha^−1 on test plants at the R5 stage of development. Latron B-1956 (Rohm and Haas) surfactant at 0.1% was included in all treatments. Treatments were applied from a knapsack sprayer in a randomized complete block design with four replications. Test blocks measured 5m×1.52m (7.6m^2). Plants were harvested by hand, threshed, and seed yield determined by weight. All seed weights are reported at 13% moisture content. […] To test whether PPFMS applied to leaves can substitute for methanol, spray applications of the bacterial alone and in combination with methanol were included in field experiments in the third year. […] The bacteria used in these treatments were isolated from soybean seed coat on plates of AMS medium. From a single bacterial colony, a liquid culture in the same medium was established and used to inoculate 12 liter batches of the bacteria in a Microferm fermentor (New Brunswick Scientific). Cells were harvested by centrifugation and resuspended in distilled water for application to plants in the field.

The test system of assay [3] is C3 crop plants. The settings on record: foliar sprays of aqueous (10-50%) methanol, arid environments; cited from earlier work.
Where [4] appears, read: non-stressed (freely watered), PPFMs present.
The mark [5] stands for this setting: stress (wilting) conditions, PPFMs present.
The mark [6] stands for this setting: second year, M1 = 62.5 liters × ha^−1 methanol, N1 = 12.5 kg × ha^−1 urea.

Molecules are shown by their SMILES. Marks after values point to notes of the source that are not given here.

For the compound `CO` [methanol], the “effect of methanol application on plant dry weight (a measure of yield)” value in assay [1] (non-stressed (freely watered) conditions, regardless of whether PPFMs are present) is “does not affect plant dry weight”. The “Mean dry weight +/− SD” value in assay [1] (non-stressed (freely watered), PPFMs absent (cured seeds)) came out at 5.03 ± 1.19 g; in assay [1] (setting [4]), 6.85 ± 1.69 g; in assay [1] (stress (wilting) conditions, PPFMs absent (cured seeds)), 2.69 ± 0.65 g; in assay [1] (setting [5]) it was 4.64 ± 0.72 g. Further, the “% gain over controls (dry weight)” value in assay [1] (non-stressed (freely watered), PPFMs absent (cured)) is on record as 80%; in assay [1] (setting [4]) it was 78%; in assay [1] (stress (wilting) conditions, PPFMs absent (cured)), 6%; in assay [1] (setting [5]), 65%. Besides, the “growth (increase in plant dry weight)” value in assay [1] (stress (wilting) conditions, only when PPFMs are present) was “improves growth”. For the same compound, the “Yield (seed yield)” value is reported as 2.28 in assay [2] (first year, M2N0: 125 liters × ha^−1 methanol, 0 urea, sprayed at R5) and 2.4* in assay [2] (setting [6]). In addition, the growth and yield entry in assay [3] was “increased growth and yield”.

On to `NC(N)=O` [urea], for which the “Yield (seed yield)” value is recorded as 2.18 in assay [2] (first year, M0N1: 0 methanol, 12.5 kg × ha^−1 urea, sprayed at R5); 2.15 in assay [2] (first year, M0N2: 0 methanol, 25 kg × ha^−1 urea, sprayed at R5); 2.4 in assay [2] (setting [6]).
